Results taken from ChEMBL document CHEMBL5584354, “Impact of Conjugation of the Reactive Oxygen Species (ROS)-Generating Catalytic Moiety with Membrane-Active Antimicrobial Peptoids: Promoting Multitarget Mechanism and Enhancing Selectivity” (J Med Chem, 2024).
Values after ≈ are worked out from the molar mass of the structure shown. Active and inactive are the calls of the source. No cut-off for these calls is given here. Non-standard residues stand in square brackets, D forms with d. Residues, ends and D or L forms follow the SMILES beside them. Gly(N(CH2)2(3-indolyl)) = O=C(O)CNCCc1c[nH]c2ccccc12; Nspe = C[C@H](NCC(=O)O)c1ccccc1; Nlys = NCCCCNCC(=O)O

Experiments:
[1] = Cytotoxicity against mouse RAW264.7 cells assessed as cell viability at 20 uM incubated for 24 hrs by […] relative to control; format: toxicity, cell-based; conditions: read-out: Activity
Escherichia coli [2] = experiment: Induction of lipid peroxidation in Escherichia coli ATCC 25922 assessed as increase in MDA level at 10 uM incubated for 2 hrs by TBARS assay; format: functional, organism-based
Escherichia coli [3] = experiment: Induction of lipid peroxidation in Escherichia coli ATCC 25922 at 12.5 uM incubated for 1 hrs by BODIPY 581/591 C11 dye based flow cytometry analysis; format: functional, organism-based
Escherichia coli [4] = experiment: Antibacterial activity against Escherichia coli K1 infected in female ICR mouse model of septic shock assessed as reduction in bacterial load in liver at 5 mg/kg, ip pretreated for 1 hr followed by bacteria addition and further treated with 3 doses of compound every 4 hrs; format: functional, organism-based; conditions: time 9.0 hrs
[5] = Toxicity in female ICR mouse assessed as dilatation of interstitial blood capillaries in kidney at 5 mg/kg, ip administered four doses for 12 hrs and measured 24 hrs post last dose by H and E staining based light microscopic analysis; format: organism-based; conditions: in vivo, 36 h
Escherichia coli [6] = experiment: Antibacterial activity against colistin-resistant Escherichia coli NMS12 harboring extended-spectrum beta-lactamase assessed as inhibition of bacterial growth incubated for 24 hrs by broth dilution method; format: functional
Lipopolysaccharide (LPS) = experiment: Binding affinity to Escherichia coli O111:B4 LPS at 0 to 25 uM BODIPY-TR-cadaverine substitution assay; format: subcellular; conditions: dose 0-25 µM
RAW264.7 [7] = experiment: Cytotoxicity against mouse RAW264.7 cells assessed as cell killing incubated for 24 hrs by MTS assay; format: toxicity, cell-based; conditions: raw264.7, 24 h
RAW264.7 [8] = experiment: Antiinflammatory activity in LPS-stimulated mouse RAW264.7 cells assessed as reduction in nitrite production at 10 uM incubated for 16 hrs by ELISA relative to control; format: functional; parameters: scale not given: the % may be the effect or the level left
Escherichia coli [9] = experiment: Antibacterial activity against Escherichia coli K1 infected in female ICR mouse model of septic shock assessed as reduction in IL-6 level in serum at 5 mg/kg, ip pretreated for 1 hr followed by bacteria addition and further treated with 3 doses of compound every 4 hrs by ELISA relative to control; format: functional; parameters: scale not given: the % may be the effect or the level left; conditions: time 9 hrs
Erythrocyte = experiment: Hemolytic activity in male Sprague-Dawley rat erythrocytes assessed as concentration required for 10% hemolysis incubated for 1 hr by absorbance based method; format: toxicity, cell-based
[10] = Toxicity in female ICR mouse assessed as effect on creatinine level in serum at 5 mg/kg, ip administered four doses for 12 hrs and measured 24 hrs post last dose; format: organism-based; conditions: in vivo, 36 h
RAW264.7 [11] = experiment: Antiinflammatory activity in LPS-stimulated mouse RAW264.7 cells assessed as reduction in TNFalpha production at 10 uM incubated for 16 hrs by ELISA relative to control; format: functional; parameters: scale not given: the % may be the effect or the level left
[12] = Toxicity in female ICR mouse assessed as effect on AST level in serum at 5 mg/kg, ip administered four doses for 12 hrs and measured 24 hrs post last dose; format: organism-based; conditions: in vivo, 36 h
[13] = Toxicity in female ICR mouse infected with Escherichia coli K1 assessed as lung injury at 5 mg/kg, ip pretreated for 1 hr followed by bacteria addition and further treated with 3 doses of compound every 4 hrs; format: organism-based; conditions: in vivo, 9 h
[14] = Selectivity index, ratio of HC10 for hemolytic activity in male Sprague-Dawley rat erythrocytes to MIC for antibacterial activity against Escherichia coli ATCC 25922; format: toxicity; conditions: read-out: Selectivity Index
Escherichia coli [15] = experiment: Antibacterial activity against Escherichia coli K1 infected in female ICR mouse model of septic shock assessed as reduction in TNFalpha level in serum at 5 mg/kg, ip pretreated for 1 hr followed by bacteria addition and further treated with 3 doses of compound every 4 hrs by ELISA relative to control; format: functional; parameters: scale not given: the % may be the effect or the level left; conditions: time 9 hrs
Escherichia coli [16] = experiment: Antibacterial activity against Escherichia coli K1 infected in female ICR mouse model of septic shock assessed as reduction in bacterial load in lung at 5 mg/kg, ip pretreated for 1 hr followed by bacteria addition and further treated with 3 doses of compound every 4 hrs; format: functional, organism-based; conditions: time 9.0 hrs
Escherichia coli [17] = experiment: Antibacterial activity against Escherichia coli K1 infected in female ICR mouse model of septic shock assessed as reduction in infiltrated […] in lung at 5 mg/kg, ip pretreated for 1 hr followed by bacteria addition and further treated with 3 doses of compound every 4 hrs by H and E staining based light microscopic analysis; format: functional, organism-based; conditions: time 9.0 hrs
HEK293 = experiment: Cytotoxicity against HEK293 cells assessed as cell killing incubated for 24 hrs by MTS assay; format: toxicity, cell-based; conditions: human, hek293, 24 h
RAW264.7 [18] = experiment: Antiinflammatory activity in LPS-stimulated mouse RAW264.7 cells assessed as reduction in IL-6 production at 10 uM incubated for 16 hrs by ELISA relative to control; format: functional; parameters: scale not given: the % may be the effect or the level left
[19] = Toxicity in female ICR mouse assessed as dilatation of renal vein in kidney at 5 mg/kg, ip administered four doses for 12 hrs and measured 24 hrs post last dose by H and E staining based light microscopic analysis; format: organism-based; conditions: in vivo, 36 h
HEK-Blue hTLR7 [20] = experiment: Inhibition of TLR4-mediated inflammatory signaling in LPS-stimulated HEK-Blue […] cells assessed as reduction in SEAP activity at 10 uM preincubated for 1 hr followed by LPS stimulation and measured after 16 hrs by ELISA relative to control; format: cell-based; conditions: Homo sapiens, time 17.0 hrs
[21] = Hemolytic activity in male Sprague-Dawley rat erythrocytes at 100 uM incubated for 1 hr by absorbance based method relative to control; format: toxicity, cell-based, Erythrocyte; conditions: read-out: Activity
MRC5 = experiment: Cytotoxicity against human MRC5 cells assessed as cell killing incubated for 24 hrs by MTS assay; format: toxicity, cell-based; conditions: mrc5, 24 h
Escherichia coli [22] = experiment: Antibacterial activity against Escherichia coli K1 infected in female ICR mouse model of septic shock assessed as reduction in ALT level in serum at 5 mg/kg, ip pretreated for 1 hr followed by bacteria addition and further treated with 3 doses of compound every 4 hrs relative to control; format: functional; parameters: scale not given: the % may be the effect or the level left; conditions: time 9 hrs
HEK-Blue hTLR7 [23] = experiment: Inhibition of TLR4-mediated inflammatory signaling in LPS-stimulated HEK-Blue […] cells assessed as reduction in SEAP activity at 20 uM preincubated for 1 hr followed by LPS stimulation and measured after 16 hrs by ELISA relative to control; format: cell-based; conditions: Homo sapiens, time 17.0 hrs
[24] = Cytotoxicity against mouse RAW264.7 cells assessed as cell viability at 10 uM incubated for 24 hrs by […] relative to control; format: toxicity, cell-based; conditions: read-out: Activity
L929 = experiment: Cytotoxicity against mouse L929 cells assessed as reduction in cell viability at 3.1 to 25 uM incubated for 24 hrs by WST-8 assay; format: toxicity, cell-based; conditions: l929, 24 h, dose 3.1-25 µM
Escherichia coli [25] = experiment: Antibacterial activity against Escherichia coli K1 infected in female ICR mouse model of septic shock assessed as reduction in pulmonary congestion in lung at 5 mg/kg, ip pretreated for 1 hr followed by bacteria addition and further treated with 3 doses of compound every 4 hrs by H and E staining based light microscopic analysis; format: functional, organism-based; conditions: time 9.0 hrs
Escherichia coli [26] = experiment: Antibacterial activity against Escherichia coli K1 infected in female ICR mouse model of septic shock assessed as reduction in endotoxin level at 5 mg/kg, ip pretreated for 1 hr followed by bacteria addition and further treated with 3 doses of compound every 4 hrs relative to control; format: functional; parameters: scale not given: the % may be the effect or the level left; conditions: time 9 hrs
Cell membrane = experiment: Disruption of inner membrane in Escherichia coli ATCC 25922 assessed as increase in absorbance incubated for 1 hr by ONPG assay; format: cell membranes; conditions: dose 0-25 µM

For `C[C@@H](c1ccccc1)N(CC(=O)N(CCCCN)CC(=O)N(CCc1c[nH]c2ccccc12)CC(=O)N(CCc1c[nH]c2ccccc12)CC(N)=O)C(=O)CN(CCCCN)C(=O)CN(CCCCN)C(=O)CN(C(=O)CN(C(=O)CN(CCCCN)C(=O)CN(C(=O)CN(C(=O)CN(CCCCN)C(=O)[C@H](Cc1c[nH]cn1)NC(=O)CNC(=O)CN)[C@@H](C)c1ccccc1)[C@@H](C)c1ccccc1)[C@@H](C)c1ccccc1)[C@@H](C)c1ccccc1` (H-GGH[Nlys][Nspe][Nspe][Nlys][Nspe][Nspe][Nlys][Nlys][Nspe][Nlys][Gly(N(CH2)2(3-indolyl))][Gly(N(CH2)2(3-indolyl))]-NH2), the viability at 24 h, 20 µM [1] was 74.1%, the Activity (Escherichia coli [2]) was “Active” and the Activity (Escherichia coli [3]) was “Active”. For the same compound, the Activity (Escherichia coli [4]) was “Active”, the Activity [5] was “Non-Toxic” and the MIC (Escherichia coli [6]) was 12.5 µM (≈ 26.4 µg/mL). For the same compound, the Activity (Lipopolysaccharide (LPS)) was “Active”, the LC50 (RAW264.7 [7]) was 39.6 µM and the Activity (RAW264.7 [8]) was 80.9%. For the same compound, the Activity (Escherichia coli [9]) was 42.8%, the HC10 (Erythrocyte) was greater than 100 µM and the Activity [10] was “Non-Toxic”. The Activity (RAW264.7 [11]) was 32.5%, the Activity [12] was “Non-Toxic” and the Activity [13] was “Non-Toxic”. The selectivity ratio [14] was greater than 15.8, the Activity (Escherichia coli [15]) was 46.6% and the Activity (Escherichia coli [16]) was “Active”. The Activity (Escherichia coli [17]) was “Active”, the LC50 (HEK293) was 39.5 µM and the Activity (RAW264.7 [18]) was 99.3%. For the same compound, the Activity [19] was “Non-Toxic”, the inhibition (HEK-Blue hTLR7 [20]) was 49.7% and the hemolysis at 1 h, 100 µM [21] was 5.57%. The LC50 (MRC5) was 187 µM, the Activity (Escherichia coli [22]) was 51.1% and the inhibition (HEK-Blue hTLR7 [23]) was 84.3%. For the same compound, the viability at 24 h, 10 µM [24] was 94.5%, the Activity (L929) was “Non-Toxic” and the Activity (Escherichia coli [25]) was “Active”. For the same compound, the Activity (Escherichia coli [26]) was 44.3% and the Activity (Cell membrane) was “Dose-Dependent Effect”.
